Measurements taken from ChEMBL document CHEMBL1201862, “PubChem BioAssay data set” (2004).
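Method: 48-hour compound exposure of cells in 96-well plates, five concentrations, linear interpolation of endpoints. At the GI50, growth is halved.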 The source made the active and inactive calls. Rule as the data show it: active = GI50 up to about 1.1 µM and inactive = higher.

How the values were obtained:
Experiment in all cases: NCI-60 cell line screen, 48 h
786-0 = tested on: 786-0
A498 = tested on: A498
A549 = tested on: A549
ACHN = tested on: ACHN
BT-549 = tested on: BT-549
CAKI-1 = tested on: CAKI-1
CCRF-CEM = tested on: CCRF-CEM
COLO 205 = tested on: COLO 205
DU-145 = tested on: DU-145
EKVX = tested on: EKVX
HCC 2998 = tested on: HCC 2998
HCT-116 = tested on: HCT-116
HCT-15 = tested on: HCT-15
HL-60 = tested on: HL-60
HOP-62 = tested on: HOP-62
HOP-92 = tested on: HOP-92
HT-29 = tested on: HT-29
Hs-578T = tested on: Hs-578T
IGROV-1 = tested on: IGROV-1
K562 = tested on: K562
KM12 = tested on: KM12
LOX IMVI = tested on: LOX IMVI
M14 = tested on: M14
MCF7 = tested on: MCF7
MDA-MB-231 = tested on: MDA-MB-231
MDA-MB-435 = tested on: MDA-MB-435
MOLT-4 = tested on: MOLT-4
Malme-3M = tested on: Malme-3M
NCI-H226 = tested on: NCI-H226
NCI-H23 = tested on: NCI-H23
NCI-H460 = tested on: NCI-H460
NCI-H522 = tested on: NCI-H522
NCI/ADR-RES = tested on: NCI/ADR-RES
OVCAR-3 = tested on: OVCAR-3
OVCAR-4 = tested on: OVCAR-4
OVCAR-5 = tested on: OVCAR-5
OVCAR-8 = tested on: OVCAR-8
PC-3 = tested on: PC-3
RXF 393 = tested on: RXF 393
SF-268 = tested on: SF-268
SF-295 = tested on: SF-295
SF-539 = tested on: SF-539
SK-MEL-28 = tested on: SK-MEL-28
SK-MEL-5 = tested on: SK-MEL-5
SK-OV-3 = tested on: SK-OV-3
SN12C = tested on: SN12C
SNB-19 = tested on: SNB-19
SR = tested on: SR
SW-620 = tested on: SW-620
T47D = tested on: T47D
TK-10 = tested on: TK-10
U-251 = tested on: U-251
UACC-257 = tested on: UACC-257
UACC-62 = tested on: UACC-62
UO-31 = tested on: UO-31

With CNC(=O)OC(C)CN1c2ccccc2Sc2ccccc21 (stereo not given) the GI50 (786-0) was 64.6 µM (inactive), the GI50 (A498) was > 100 µM (inactive) and the GI50 (A549) was 86.3 µM (inactive). For the same molecule, the GI50 (ACHN) was 83.8 µM (inactive), the GI50 (BT-549) was > 100 µM (inactive) and the GI50 (CAKI-1) was > 100 µM (inactive). The GI50 (CCRF-CEM) was > 100 µM (inactive), the GI50 (COLO 205) was 41.2 µM (inactive) and the GI50 (DU-145) was > 100 µM (inactive). For the same molecule, the GI50 (EKVX) was 51.4 µM (inactive), the GI50 (HCC 2998) was > 100 µM (inactive) and the GI50 (HCT-116) was 57.5 µM (inactive). The GI50 (HCT-15) was 32.1 µM, the GI50 (HL-60) was 7.69 µM (inactive) and the GI50 (HOP-62) was > 100 µM (inactive). For the same molecule, the GI50 (HOP-92) was 76.9 µM (inactive), the GI50 (HT-29) was 80 µM (inactive) and the GI50 (Hs-578T) was > 100 µM (inactive). The GI50 (IGROV-1) was 59.3 µM (inactive), the GI50 (K562) was 63.7 µM (inactive) and the GI50 (KM12) was > 100 µM (inactive). For the same molecule, the GI50 (LOX IMVI) was 75.2 µM (inactive), the GI50 (M14) was 64.9 µM (inactive) and the GI50 (MCF7) was > 100 µM (inactive). The GI50 (MDA-MB-231) was > 100 µM (inactive), the GI50 (MDA-MB-435) was 80.2 µM (inactive) and the GI50 (MOLT-4) was 19.1 µM (inactive). For the same molecule, the GI50 (Malme-3M) was > 100 µM (inactive), the GI50 (NCI-H226) was > 100 µM (inactive) and the GI50 (NCI-H23) was > 100 µM (inactive). For the same molecule, the GI50 (NCI-H460) was 57.3 µM (inactive), the GI50 (NCI-H522) was > 100 µM (inactive) and the GI50 (NCI/ADR-RES) was 76 µM (inactive). For the same molecule, the GI50 (OVCAR-3) was > 100 µM (inactive), the GI50 (OVCAR-4) was 74.5 µM (inactive) and the GI50 (OVCAR-5) was > 100 µM (inactive). The GI50 (OVCAR-8) was > 100 µM (inactive), the GI50 (PC-3) was 8.63 µM (inactive) and the GI50 (RXF 393) was 36.2 µM (inactive). The GI50 (SF-268) was > 100 µM (inactive), the GI50 (SF-295) was 45.1 µM (inactive) and the GI50 (SF-539) was 64.3 µM (inactive). For the same molecule, the GI50 (SK-MEL-28) was > 100 µM (inactive), the GI50 (SK-MEL-5) was 59.8 µM (inactive) and the GI50 (SK-OV-3) was > 100 µM (inactive). The GI50 (SN12C) was > 100 µM (inactive), the GI50 (SNB-19) was > 100 µM (inactive) and the GI50 (SR) was 86.3 µM (inactive). The GI50 (SW-620) was > 100 µM (inactive), the GI50 (T47D) was > 100 µM (inactive) and the GI50 (TK-10) was > 100 µM (inactive). For the same molecule, the GI50 (U-251) was > 100 µM (inactive), the GI50 (UACC-257) was > 100 µM (inactive) and the GI50 (UACC-62) was > 100 µM (inactive). The GI50 (UO-31) was > 100 µM (inactive).
